According to patent publication US20240287079A1, “6-AMINOPYRAZOLOPYRIMIDINE COMPOUND AND PHARMACEUTICAL USE THEREOF” (Japan Tobacco Inc., priority 2021, published 2024):

Target: NLRP3 inflammasome (Homo sapiens (Human), UniProt Q96P20)
Assay: Evaluation of NLRP3 inflammasome inhibitory activity (inhibition of IL-1β production in LPS/Nigericin-stimulated THP1-Null cells)
Format: cell-based
Details: IL-1β production in THP1-Null cells; for IC50: PMA, LPS 1 μg/mL, Nigericin 7.5 μmol/L, AlphaLISA
Experimental: The NLRP3 inflammasome inhibitory activity of test compounds were evaluated on the basis of the inhibitory activity of the IL-1β production in THP1-Null cells (Product Number: thp-null, InvivoGen). […] The supernatant of the culture was removed, and thereto was added media for assay (25 μL/well) containing 1 μg/mL Lipopolysaccharides (Product Number: L2654, Sigma-Aldrich (registered trademark)). […] The supernatant of the culture was removed. […] A solution containing a test compound (20 μL/well) was added to test compound-setting wells. […] The supernatant of the culture was cryonically stored (set at −20° C.) until measurement of IL-1β.
The amount of IL-1β in the culture supernatant was quantitated with AlphaLISA(registered trademark) Human IL-1β Detection Kit (Product Number: AL220C, Perkin Elmer). Fluorescence intensity was measured with a microplate reader EnSpier (Model number: 2300-00J, Perkin Elmer) or EnSight(Model number: HH34000000, Perkin Elmer) according to procedure manuals attached thereto. Inhibition rates of the test compound-setting wells were calculated on the basis of 100% for the blank-setting wells and 0% for the control-setting wells.

Chain of NLRP3 inflammasome (Q96P20 whole entry): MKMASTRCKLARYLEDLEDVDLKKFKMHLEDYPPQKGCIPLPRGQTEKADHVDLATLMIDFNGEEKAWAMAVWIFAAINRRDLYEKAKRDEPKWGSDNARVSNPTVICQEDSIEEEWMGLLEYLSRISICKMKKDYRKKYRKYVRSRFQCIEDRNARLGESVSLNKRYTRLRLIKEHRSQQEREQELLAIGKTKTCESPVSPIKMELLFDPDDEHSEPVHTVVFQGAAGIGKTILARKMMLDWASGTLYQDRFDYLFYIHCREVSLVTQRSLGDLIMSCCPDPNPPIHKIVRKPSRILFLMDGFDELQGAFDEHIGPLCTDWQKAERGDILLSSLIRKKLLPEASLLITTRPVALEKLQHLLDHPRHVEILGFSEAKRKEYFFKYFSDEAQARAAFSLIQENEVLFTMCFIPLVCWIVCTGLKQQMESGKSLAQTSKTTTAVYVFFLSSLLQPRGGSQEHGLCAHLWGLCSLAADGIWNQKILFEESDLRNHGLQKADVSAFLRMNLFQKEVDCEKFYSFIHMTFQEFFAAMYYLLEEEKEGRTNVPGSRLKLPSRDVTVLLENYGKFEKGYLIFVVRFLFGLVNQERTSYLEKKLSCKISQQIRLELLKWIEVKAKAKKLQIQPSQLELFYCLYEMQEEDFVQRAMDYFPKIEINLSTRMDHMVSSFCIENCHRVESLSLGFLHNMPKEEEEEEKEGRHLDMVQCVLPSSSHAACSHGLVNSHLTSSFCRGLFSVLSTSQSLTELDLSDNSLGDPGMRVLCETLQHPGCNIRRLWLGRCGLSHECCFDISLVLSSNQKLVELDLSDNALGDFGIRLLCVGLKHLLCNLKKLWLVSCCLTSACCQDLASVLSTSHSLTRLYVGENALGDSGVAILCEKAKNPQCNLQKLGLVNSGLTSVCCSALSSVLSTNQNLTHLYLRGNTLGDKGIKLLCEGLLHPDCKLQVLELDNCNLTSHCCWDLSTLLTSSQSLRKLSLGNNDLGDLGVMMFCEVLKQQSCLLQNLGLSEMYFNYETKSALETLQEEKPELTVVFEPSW

Work on Cc1ccccc1-n1cc2c(=O)[nH]c(N3CCOCC3C)nc2n1 (racemic) [Example 17] yielded an IC50 of 2800 nM.

For Cc1ccccc1-n1cc2c(=O)[nH]c(N3CCC(O)C3)nc2n1 (racemic) [Example 21], the IC50 was 1600 nM.

Cc1ccccc1-n1cc2c(=O)[nH]c(N3CCC(C#N)C3)nc2n1 (racemic) [Example 26] gave an IC50 of 1300 nM.

Cc1ccccc1-n1cc2c(=O)[nH]c(N3CCC(c4ccccc4)C3)nc2n1 (racemic) [Example 27] gave an IC50 of 1200 nM.

CCOC1CCN(c2nc3nn(-c4ccccc4C)cc3c(=O)[nH]2)C1 (racemic) [Example 28] showed an IC50 of 950 nM.

For Cc1ccccc1-n1cc2c(=O)[nH]c(N3CCC(C)(O)C3)nc2n1 (racemic) [Example 37], the IC50 was 3200 nM.

Cc1ccccc1-n1cc2c(=O)[nH]c(N3CCC3Cc3ccccc3)nc2n1 (racemic) [Example 38] gave an IC50 of 2500 nM.

For CCOC1CCN(c2nc3nn(-c4c(C)cccc4C)cc3c(=O)[nH]2)C1 (racemic) [Example 48], the IC50 was 820 nM.

Compound COC1CCN(c2nc3nn(-c4c(C)cccc4C)cc3c(=O)[nH]2)C1 (racemic) [Example 54] has an IC50 of 480 nM.

For COC1CCN(c2nc3nn(-c4ccc(C)cc4C)cc3c(=O)[nH]2)C1 (racemic) [Example 56], the IC50 was 190 nM.

CCOC1CCN(c2nc3nn(-c4ccc(C)cc4C)cc3c(=O)[nH]2)C1 (racemic) [Example 57] gave an IC50 of 150 nM.

COC1CCN(c2nc3nn(-c4ccc(Br)cc4C)cc3c(=O)[nH]2)C1 (racemic) [Example 70] gave an IC50 of 39 nM.

COCC1CN(c2nc3nn(-c4ccc(Br)cc4C)cc3c(=O)[nH]2)CCO1 (racemic) [Example 72] gave an IC50 of 52 nM.

Work on Cc1cc(Br)ccc1-n1cc2c(=O)[nH]c(N3CCC(C#N)C3)nc2n1 (racemic) [Example 90] yielded an IC50 of 4.9 nM.

COC1CCN(c2nc3nn(-c4c(C)cc(C)cc4C)cc3c(=O)[nH]2)C1 (racemic) [Example 93] was tested, and the IC50 was 9.1 nM.

In the case of Cc1cc(C)c(-n2cc3c(=O)[nH]c(N4CCCC(O)C4)nc3n2)c(C)c1 (racemic) [Example 107], the IC50 is reported as 58 nM.

For COC1CCCN(c2nc3nn(-c4c(C)cc(C)cc4C)cc3c(=O)[nH]2)C1 (racemic) [Example 108], the IC50 was 200 nM.

Compound Cc1cc(C)c(-n2cc3c(=O)[nH]c(N4CCC(C)C4)nc3n2)c(C)c1 (racemic) [Example 109] has an IC50 of 64 nM.

CNC(=O)C1CCN(c2nc3nn(-c4c(C)cc(C)cc4C)cc3c(=O)[nH]2)C1 (racemic) [Example 110] gave an IC50 of 80 nM.

CC(=O)NC1CCN(c2nc3nn(-c4c(C)cc(C)cc4C)cc3c(=O)[nH]2)C1 (racemic) [Example 111] showed an IC50 of 56 nM.

Work on Cc1cc(C)c(-n2cc3c(=O)[nH]c(N4CCC(S(C)(=O)=O)C4)nc3n2)c(C)c1 (racemic) [Example 112] yielded an IC50 of 55 nM.

With Cc1cc(C)c(-n2cc3c(=O)[nH]c(N4CCC(N(C)C)C4)nc3n2)c(C)c1 (racemic) [Example 113] the IC50 was 63 nM.

Work on Cc1cc(C)c(-n2cc3c(=O)[nH]c(N4CCCC(CO)C4)nc3n2)c(C)c1 (racemic) [Example 116] yielded an IC50 of 79 nM.

In the case of CC(O)c1cc(Br)ccc1-n1cc2c(=O)[nH]c(N3CCOCC3)nc2n1 (racemic) [Example 130], the IC50 is reported as 63 nM.

With O=c1[nH]c(N2CCOCC2)nc2nn(-c3ccc(Br)cc3C(O)C3CC3)cc12 (racemic) [Example 150] the IC50 was 16 nM.

With Cc1cc(Br)ccc1-n1cc2c(=O)[nH]c(N3CC4CC3CO4)nc2n1 (racemic) [Example 159] the IC50 was 11 nM.

Work on Cc1cc(Cl)cc(C(O)C2CC2)c1-n1cc2c(=O)[nH]c(N3CCOCC3)nc2n1 (racemic) [Example 162] yielded an IC50 of 150 nM.

O=c1[nH]c(N2CCCC2CO)nc2nn(-c3ccc(C(F)(F)F)cc3Cl)cc12 (racemic) [Example 178] gave an IC50 of 33 nM.

Cc1cc(Cl)cc(C(C)C)c1-n1cc2c(=O)[nH]c(N3CCOCC3)nc2n1 (racemic) [Example 188] was tested, and the IC50 was 89 nM.

Cc1cc(Br)cc(C)c1-n1cc2c(=O)[nH]c(N3CCC(C(C)(C)O)C3)nc2n1 (racemic) [Example 194] gave an IC50 of 24 nM.

Cc1cc(Br)cc(C)c1-n1cc2c(=O)[nH]c(N3CC4CC3C4)nc2n1 (racemic) [Example 217] showed an IC50 of 7.1 nM.

With Cc1cc(Br)cc(C)c1-n1cc2c(=O)[nH]c(N3CC4CC3CN4S(C)(=O)=O)nc2n1 (racemic) [Example 219] the IC50 was 19 nM.

Work on COCC(=O)N1CC2CC1CN2c1nc2nn(-c3c(C)cc(Br)cc3C)cc2c(=O)[nH]1 (racemic) [Example 220] yielded an IC50 of 23 nM.

COCC(=O)N1CC2CC1CN2c1nc2nn(-c3c(C)cc(C4CC4)cc3C)cc2c(=O)[nH]1 (racemic) [Example 234] was tested, and the IC50 was 24 nM.

For Cc1cc(Br)cc(C)c1-n1cc2c(=O)[nH]c(NC3CCCN(C)C3)nc2n1 (racemic) [Example 245], the IC50 was 8 nM.

Compound Cc1cc(Br)cc(C)c1-n1cc2c(=O)[nH]c(N3CC4COC(C4)C3)nc2n1 (racemic) [Example 279] has an IC50 of 15 nM.

With Cc1cc(Br)cc(C)c1-n1cc2c(=O)[nH]c(N3CCOC4CC43)nc2n1 (racemic) [Example 289] the IC50 was 10 nM.

Compound Cc1cc(C(C)C(F)(F)F)cc(C)c1-n1cc2c(=O)[nH]c(N3CCOCC3)nc2n1 (racemic) [Example 294] has an IC50 of 270 nM.

In the case of Cc1cc(Br)cc(C)c1-n1cc2c(=O)[nH]c(N3CCC(C#N)C3)nc2n1 (racemic) [Example 323], the IC50 is reported as 6.4 nM.

Compound Cc1cc(C2CC2)cc(C)c1-n1cc2c(=O)[nH]c(N3CCC(C#N)C3)nc2n1 (racemic) [Example 324] has an IC50 of 6.2 nM.

Work on CCC(C)n1nc(C)c(-n2cc3c(=O)[nH]c(N4CCCC4)nc3n2)c1C (racemic) [Example 347] yielded an IC50 of 920 nM.

Cc1cc(Br)cc(C)c1-n1cc2c(=O)[nH]c(N3CCOCC3O)nc2n1 (racemic) [Example 363] was tested, and the IC50 was 2.9 nM.

Work on Cc1cc(Br)cc(C)c1-n1cc2c(=O)[nH]c(N3CCOC(O)C3)nc2n1 (racemic) [Example 364] yielded an IC50 of 66 nM.

O=c1[nH]c(N2CCCC2)nc2nn(-c3ccccc3Cl)cc12 [Example 1] showed an IC50 of 340 nM.

Work on O=c1[nH]c(N2CCCC2)nc2nn(-c3ccccc3)cc12 [Example 2] yielded an IC50 of 8900 nM.

With Cc1ccccc1-n1cc2c(=O)[nH]c(N3CCCC3)nc2n1 [Example 3, 6-(pyrrolidin-1-yl)-2-(o-tolyl)-2,5-dihydro-4H-pyrazolo[3,4-d]pyrimidin-4-one] the IC50 was 530 nM.

Compound CN(C)c1nc2nn(-c3ccccc3Cl)cc2c(=O)[nH]1 [Example 4] has an IC50 of 1700 nM.

In the case of Cc1ccccc1-n1cc2c(=O)[nH]c(N3CCOCC3)nc2n1 [Example 5], the IC50 is reported as 1400 nM.

With Cc1ccc(C(F)(F)F)cc1-n1cc2c(=O)[nH]c(N3CCCC3)nc2n1 [Example 6] the IC50 was 4000 nM.

Compound COc1ccccc1CN(C)c1nc2nn(-c3ccccc3C)cc2c(=O)[nH]1 [Example 7] has an IC50 of 22000 nM.

For O=c1[nH]c(N2CCCC2)nc2nn(-c3ccccc3C(F)(F)F)cc12 [Example 8], the IC50 was 590 nM.

Compound O=c1[nH]c(N2CCCC2)nc2nn(-c3ccccc3OC(F)(F)F)cc12 [Example 9] has an IC50 of 1200 nM.

Work on O=c1[nH]c(N2CCCC2)nc2nn(-c3c(F)cccc3F)cc12 [Example 10] yielded an IC50 of 2400 nM.

Cc1cccc(C)c1-n1cc2c(=O)[nH]c(N3CCCC3)nc2n1 [Example 11] was tested, and the IC50 was 200 nM.

Cc1ccccc1-n1cc2c(=O)[nH]c(N3CCC(F)(F)C3)nc2n1 [Example 12] showed an IC50 of 380 nM.

For COc1nc(N2CCCC2)nc2nn(-c3ccccc3C)cc12 [Example 13], the IC50 was 7700 nM.

Compound Cc1ccccc1-n1cc2c(=O)n(C)c(N3CCCC3)nc2n1 [Example 14] has an IC50 of 7200 nM.

Work on Cc1ccccc1-n1cc2c(=O)[nH]c(N3CCCCC3)nc2n1 [Example 15] yielded an IC50 of 1500 nM.

Cc1ccccc1-n1cc2c(=O)[nH]c(N3CCC3)nc2n1 [Example 16] gave an IC50 of 1300 nM.

With CCCN(C)c1nc2nn(-c3ccccc3C)cc2c(=O)[nH]1 [Example 18] the IC50 was 12000 nM.

In the case of CCCNc1nc2nn(-c3ccccc3C)cc2c(=O)[nH]1 [Example 19], the IC50 is reported as 1400 nM.

In the case of Cc1ccccc1-n1cc2c(=O)[nH]c(N(C)C)nc2n1 [Example 20], the IC50 is reported as 6500 nM.

In the case of Cc1ccccc1-n1cc2c(=O)[nH]c(N3CCCCCC3)nc2n1 [Example 22], the IC50 is reported as 8200 nM.

For Cc1ccccc1-n1cc2c(=O)[nH]c(N(C)C(C)C)nc2n1 [Example 23], the IC50 was 1900 nM.

Cc1ccccc1-n1cc2c(=O)[nH]c(Nc3ccccc3)nc2n1 [Example 24] gave an IC50 of 2400 nM.

In the case of O=c1[nH]c(N2CCOCC2)nc2nn(-c3ccccc3C(F)(F)F)cc12 [Example 25], the IC50 is reported as 950 nM.

Compound N#Cc1ccccc1-n1cc2c(=O)[nH]c(N3CCCC3)nc2n1 [Example 29] has an inhibition at 24 µM (test compound 24 μM) of 2%.

O=c1[nH]c(N2CCCC2)nc2nn(-c3c(Cl)cccc3Cl)cc12 [Example 30, 2-(2,6-dichlorophenyl)-6-(pyrrolidin-1-yl)-2,5-dihydro-4H-pyrazole[3,4-d]pyrimidin-4-one] showed an IC50 of 1100 nM.

CC(C)c1ccccc1-n1cc2c(=O)[nH]c(N3CCCC3)nc2n1 [Example 31] gave an IC50 of 540 nM.

Compound O=c1[nH]c(N2CCCC2)nc2nn(-c3ccc(F)cc3Cl)cc12 [Example 32] has an IC50 of 240 nM.

In the case of COC1CN(c2nc3nn(-c4ccccc4C)cc3c(=O)[nH]2)C1 [Example 33], the IC50 is reported as 2300 nM.

With Cc1ccccc1-n1cc2c(=O)[nH]c(N3CC(F)(F)C3)nc2n1 [Example 34] the IC50 was 470 nM.

Compound Cc1ccccc1-n1cc2c(=O)[nH]c(NCC(C)C)nc2n1 [Example 35] has an IC50 of 1700 nM.

With CNc1nc2nn(-c3ccccc3C)cc2c(=O)[nH]1 [Example 36] the IC50 was 1700 nM.
